# How the values were obtained:
# Assay in all cases: relative viability (nuclei count vs DMSO), 5 days (fraction); higher = more cells survive
# PC-14 = test system: PC-14
# Procedure, shortened: (§1)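 Lung cancer cell lines in 1536-well plates were dosed by pin tool the day after seeding, either with one drug alone or with a fixed anchor-drug dose plus five library-drug doses (not always all listed) in √10 steps. After 5 days, cells were fixed and their nuclei stained in one step (final 0.05% Triton X-100, 1% formaldehyde, 1 ug/ml Hoechst), then counted on 4× images. Relative viability is the nuclei count in treated wells divided by that in vehicle wells. Values are medians of duplicate plates.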
# HCC-366 = test system: HCC-366
# Procedure, shortened: as §1
# NCI-H2228 = test system: NCI-H2228
# Procedure, shortened: as §1
# UMC-11 = test system: UMC-11
# Procedure, shortened: as §1
# H3255 = test system: H3255
# Procedure, shortened: as §1
# ABC-1 = test system: ABC-1
# Procedure, shortened: as §1
# NCI-H2085 = test system: NCI-H2085
# Procedure, shortened: as §1
# LCLC-103H = test system: LCLC-103H
# Procedure, shortened: as §1
# COR-L23 = test system: COR-L23
# Procedure, shortened: as §1
# NCI-H23 = test system: NCI-H23
# Procedure, shortened: as §1
# NCI-H661 = test system: NCI-H661
# Procedure, shortened: as §1
# NCI-H1666 = test system: NCI-H1666
# Procedure, shortened: as §1
# NCI-H1975 = test system: NCI-H1975
# Procedure, shortened: as §1
# LXF-289 = test system: LXF-289
# Procedure, shortened: as §1
# NCI-H2009 = test system: NCI-H2009
# Procedure, shortened: as §1
# SK-MES-1 = test system: SK-MES-1
# Procedure, shortened: as §1
# HCC-15 = test system: HCC-15
# Procedure, shortened: as §1
# NCI-H1437 = test system: NCI-H1437
# Procedure, shortened: as §1
# HCC-827 = test system: HCC-827
# Procedure, shortened: as §1
# NCI-H2342 = test system: NCI-H2342
# Procedure, shortened: as §1
# PC-3 [JPC-3] = test system: PC-3 [JPC-3]
# Procedure, shortened: as §1
# LC-2-ad = test system: LC-2-ad
# Procedure, shortened: as §1
# NCI-H2087 = test system: NCI-H2087
# Procedure, shortened: as §1
smiles,measurement,setting,value
CN1CCN(CCOc2cc(OC3CCOCC3)c3c(Nc4c(Cl)ccc5c4OCO5)ncnc3c2)CC1 [Saracatinib] + O=C(c1cc(Cc2n[nH]c(=O)c3ccccc23)ccc1F)N1CCN(C(=O)C2CC2)CC1 [Olaparib] (partner 8 µM),relative viability,PC-14; first compound 0.02 µM,0.263
same,relative viability,PC-14; first compound 0.2 µM,0.261
same,relative viability,PC-14; first compound 0.6325 µM,0.201
same,relative viability,PC-14; first compound 2 µM,0.117
same,relative viability,HCC-366; first compound 0.02 µM,0.343
same,relative viability,HCC-366; first compound 0.2 µM,0.0912
same,relative viability,HCC-366; first compound 0.6325 µM,0.264
same,relative viability,HCC-366; first compound 2 µM,0.199
same,relative viability,NCI-H2228; first compound 0.02 µM,0.966
same,relative viability,NCI-H2228; first compound 0.2 µM,0.617
same,relative viability,NCI-H2228; first compound 0.6325 µM,0.475
same,relative viability,NCI-H2228; first compound 2 µM,0.568
same,relative viability,UMC-11; first compound 0.02 µM,0.42
same,relative viability,UMC-11; first compound 0.2 µM,0.306
same,relative viability,UMC-11; first compound 0.6325 µM,0.362
same,relative viability,UMC-11; first compound 2 µM,0.351
same,relative viability,H3255; first compound 0.02 µM,0.623
same,relative viability,H3255; first compound 0.2 µM,0.496
same,relative viability,H3255; first compound 0.6325 µM,0.593
same,relative viability,H3255; first compound 2 µM,0.301
same,relative viability,ABC-1; first compound 0.02 µM,0.568
same,relative viability,ABC-1; first compound 0.2 µM,0.941
same,relative viability,ABC-1; first compound 0.6325 µM,0.706
same,relative viability,ABC-1; first compound 2 µM,0.751
same,relative viability,NCI-H2085; first compound 0.02 µM,0.802
same,relative viability,NCI-H2085; first compound 0.2 µM,0.602
same,relative viability,NCI-H2085; first compound 0.6325 µM,0.821
same,relative viability,NCI-H2085; first compound 2 µM,0.863
same,relative viability,LCLC-103H; first compound 0.02 µM,0.796
same,relative viability,LCLC-103H; first compound 0.2 µM,0.71
same,relative viability,LCLC-103H; first compound 0.6325 µM,0.758
same,relative viability,LCLC-103H; first compound 2 µM,0.807
same,relative viability,COR-L23; first compound 0.02 µM,0.447
same,relative viability,COR-L23; first compound 0.2 µM,0.319
same,relative viability,COR-L23; first compound 0.6325 µM,0.346
same,relative viability,COR-L23; first compound 2 µM,0.312
same,relative viability,NCI-H23; first compound 0.02 µM,0.386
same,relative viability,NCI-H23; first compound 0.6325 µM,0.391
same,relative viability,NCI-H23; first compound 2 µM,0.23
same,relative viability,NCI-H661; first compound 0.02 µM,0.748
same,relative viability,NCI-H661; first compound 0.2 µM,0.625
same,relative viability,NCI-H661; first compound 0.6325 µM,0.671
same,relative viability,NCI-H661; first compound 2 µM,0.59
same,relative viability,NCI-H1666; first compound 0.02 µM,0.722
same,relative viability,NCI-H1666; first compound 0.2 µM,0.696
same,relative viability,NCI-H1666; first compound 0.6325 µM,0.974
same,relative viability,NCI-H1666; first compound 2 µM,0.995
same,relative viability,NCI-H1975; first compound 0.02 µM,0.787
same,relative viability,NCI-H1975; first compound 0.2 µM,0.793
same,relative viability,NCI-H1975; first compound 0.6325 µM,0.804
same,relative viability,NCI-H1975; first compound 2 µM,0.517
same,relative viability,LXF-289; first compound 0.02 µM,1.07
same,relative viability,LXF-289; first compound 0.2 µM,0.916
same,relative viability,LXF-289; first compound 0.6325 µM,1.09
same,relative viability,LXF-289; first compound 2 µM,1.04
same,relative viability,NCI-H2009; first compound 0.02 µM,0.709
same,relative viability,NCI-H2009; first compound 0.2 µM,0.477
same,relative viability,NCI-H2009; first compound 0.6325 µM,0.688
same,relative viability,NCI-H2009; first compound 2 µM,0.724
same,relative viability,SK-MES-1; first compound 0.02 µM,0.703
same,relative viability,SK-MES-1; first compound 0.2 µM,0.69
same,relative viability,SK-MES-1; first compound 0.6325 µM,0.49
same,relative viability,SK-MES-1; first compound 2 µM,0.299
same,relative viability,HCC-15; first compound 0.02 µM,0.717
same,relative viability,HCC-15; first compound 0.2 µM,0.634
same,relative viability,HCC-15; first compound 0.6325 µM,0.79
same,relative viability,HCC-15; first compound 2 µM,0.752
same,relative viability,NCI-H1437; first compound 0.02 µM,0.68
same,relative viability,NCI-H1437; first compound 0.2 µM,0.648
same,relative viability,NCI-H1437; first compound 0.6325 µM,0.618
same,relative viability,NCI-H1437; first compound 2 µM,0.658
same,relative viability,HCC-827; first compound 0.02 µM,0.66
same,relative viability,HCC-827; first compound 0.2 µM,0.532
same,relative viability,HCC-827; first compound 0.6325 µM,0.192
same,relative viability,HCC-827; first compound 2 µM,0.16
same,relative viability,NCI-H2342; first compound 0.02 µM,0.55
same,relative viability,NCI-H2342; first compound 0.2 µM,0.312
same,relative viability,NCI-H2342; first compound 0.6325 µM,0.434
same,relative viability,NCI-H2342; first compound 2 µM,0.451
same,relative viability,PC-3 [JPC-3]; first compound 0.02 µM,1.19
same,relative viability,PC-3 [JPC-3]; first compound 0.2 µM,0.993
same,relative viability,PC-3 [JPC-3]; first compound 0.6325 µM,0.746
same,relative viability,PC-3 [JPC-3]; first compound 2 µM,0.55
same,relative viability,LC-2-ad; first compound 0.02 µM,0.773
same,relative viability,LC-2-ad; first compound 0.2 µM,0.636
same,relative viability,LC-2-ad; first compound 0.6325 µM,0.723
same,relative viability,LC-2-ad; first compound 2 µM,0.705
same,relative viability,NCI-H2087; first compound 0.02 µM,0.485
same,relative viability,NCI-H2087; first compound 0.2 µM,0.449
same,relative viability,NCI-H2087; first compound 0.6325 µM,0.552
same,relative viability,NCI-H2087; first compound 2 µM,0.515
